# Counter-ions that a name gives are not always drawn. Where a SMILES comes first, the peptide text is derived from it. [ ]: non-standard residue; d: D form. The star is where a group is joined. Gly(cPent) = N[CH](C(=O)O)C1CCCC1; Cbz = O=C(OCc1ccccc1)*; Abu = CC[CH](N)C(=O)O
# Molecular target: T1, Recombinant human calpain I (Homo sapiens, UniProt P07384)
# T1 construct: made in house
# T1 sequence (P07384 1-714): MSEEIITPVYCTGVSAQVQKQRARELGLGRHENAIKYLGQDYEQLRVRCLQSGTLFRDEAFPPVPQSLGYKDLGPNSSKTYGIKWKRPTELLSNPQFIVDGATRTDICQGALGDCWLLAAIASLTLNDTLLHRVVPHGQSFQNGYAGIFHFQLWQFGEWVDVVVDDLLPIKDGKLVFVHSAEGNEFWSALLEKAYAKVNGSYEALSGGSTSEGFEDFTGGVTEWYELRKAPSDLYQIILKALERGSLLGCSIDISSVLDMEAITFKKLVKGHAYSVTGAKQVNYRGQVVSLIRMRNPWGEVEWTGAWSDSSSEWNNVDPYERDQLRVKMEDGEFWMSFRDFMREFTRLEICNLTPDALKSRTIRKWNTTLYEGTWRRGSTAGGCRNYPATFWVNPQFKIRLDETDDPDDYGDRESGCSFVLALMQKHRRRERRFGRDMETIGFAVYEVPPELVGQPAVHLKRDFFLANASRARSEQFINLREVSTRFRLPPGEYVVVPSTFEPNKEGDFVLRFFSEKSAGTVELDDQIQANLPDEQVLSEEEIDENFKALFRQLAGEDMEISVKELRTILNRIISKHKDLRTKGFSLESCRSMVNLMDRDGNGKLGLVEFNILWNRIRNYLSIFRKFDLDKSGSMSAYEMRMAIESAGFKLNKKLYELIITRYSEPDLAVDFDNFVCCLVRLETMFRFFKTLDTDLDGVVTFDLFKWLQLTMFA
# T1 sequence (P04632 1-268 partner): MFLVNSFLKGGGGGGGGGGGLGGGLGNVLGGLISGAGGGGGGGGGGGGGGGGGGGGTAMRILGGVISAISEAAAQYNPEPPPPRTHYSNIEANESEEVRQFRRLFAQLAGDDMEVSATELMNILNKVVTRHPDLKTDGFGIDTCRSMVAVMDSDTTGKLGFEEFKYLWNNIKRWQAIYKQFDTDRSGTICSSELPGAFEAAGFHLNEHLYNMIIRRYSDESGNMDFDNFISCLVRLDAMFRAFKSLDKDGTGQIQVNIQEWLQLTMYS
# Experiment: Inhibition of calpain I activity (Succ-Leu-Tyr-MNA hydrolysis)
# Format: biochemical
# Details: 0.2 mM Succ-Leu-Tyr-MNA, pH 7.5
# Method: To evaluate inhibitory activity, stock solutions (40 concentrated) of each compound to be tested were prepared in 100% anhydrous DMSO and 5 μl of each inhibitor preparation were aliquoted into each of three wells of a 96-well plate. Recombinant human calpain I, prepared by the of Meyer et al. (Biochem. J. 1996, 314: 511-519), was into assay buffer (i.e., 50 mM Tris, 50 mM NaCl, 1 mM EDTA, 1 mM EGTA, and 5 mM β-mercaptoethanol, pH 7.5, including 0.2 mM Succ-Leu-Tyr-MNA), and 175 μl was aliquoted into the same wells containing the independent inhibitor stocks as well as to positive control wells which contained 5 μl DMSO, but no compound. To start the reaction, 20 μl of 50 mM CaCl2 in assay buffer was added to all wells of the plate, excepting three, which were used as background signal baseline controls. Substrate hydrolysis was monitored every 5 minutes for a total of 30 minutes. Substrate hydrolysis in the absence of inhibitor was linear for up to 15 minutes.
# Inhibition of calpain I activity was calculated as the percent decrease in the rate of substrate hydrolysis in the presence of inhibitor relative to the rate in its absence. Comparison between the inhibited and control rates was made within the linear range for substrate hydrolysis. The IC50 values for inhibitors (concentration yielding 50% inhibition) were determined from the percent decrease in rates of substrate hydrolysis in the presence of five to seven different concentrations of the test compound. The results were plotted as percent inhibition versus log inhibitor concentration, and the IC50 was calculated by fitting the data to the four-parameter logistic equation shown below using the program GraphPad Prism (GraphPad Software, Inc., San Diego, Calif.).
# In the equation above, the parameters a, b, c, and d are defined as follows: a is % inhibition in the absence of inhibitor, b is the slope, c is the IC50, and d is the % inhibition at an infinite concentration of inhibitor.
row,Molecule,IC50 [nM]
1,Tetrahydroisoquinoline-2-carbonyl-L-leucyl-2-amino-1-hydroxy-3-phenylpropanesulfonic acid sodium Salt [Compound 2],32
2,"CC(C)[C@H](NC(=O)OCc1ccccc1)C(=O)NC(Cc1ccccc1)C(O)S(=O)(=O)O (stereo partly drawn) [Compound 1, Benzyloxycarbonyl-L-valyl-2-amino-1-hydroxy-3-phenylpropanesulfonic acid sodium Salt]",10
3,"O=C(N[C@H](C(=O)NC(Cc1ccccc1)C(O)S(=O)(=O)O)C1CCCC1)OCc1ccccc1 (stereo partly drawn) [Compound 3, Benzyloxycarbonyl-L-cyclopentylglycyl-2-amino-1-hydroxy-3-phenylpropanesulfonic acid sodium Salt]",15

# Test system: not listed separately
# Experiment: Solubility of inhibitors in Locke's buffer
# Format: physicochemical
# Details: Locke's buffer pH 7.4; sulfonic acids: buffer added to weighed sample at 20° C.; control aldehydes: by UV absorption of filtrate
row,Solubility [µg/mL],Molecule
1,180,CC(C)C[C@H](NC(=O)N1CCc2ccccc2C1)C(=O)N[C@H](C=O)Cc1ccccc1 [THIQ-2-CO-Leu-Phe-H]
2,210,CCC(C=O)NC(=O)C(CC(C)C)NC(=O)OCc1ccccc1 (stereo not drawn) [Cbz-Leu-Abu-H] (Cbz-Leu-[Abu]-aldehyde; configuration not given here)
3,180,CC(C)[C@H](NC(=O)OCc1ccccc1)C(=O)N[C@H](C=O)Cc1ccccc1 [Cbz-Val-Phe-H] (Cbz-Val-Phe-aldehyde)
4,80,O=CC(Cc1ccccc1)NC(=O)C(NC(=O)OCc1ccccc1)C1CCCC1 (stereo not drawn) [Cbz-CyclopentylGly-Phe-H] (Cbz-[Gly(cPent)]-Phe-aldehyde; configuration not given here)

# From US6500802B1, “Peptidyl-2-amino-1-hydroxyalkanesulfonic acid cysteine protease inhibitors” (Cephalon, Inc., priority 1997, dated 2002)
